From paper PMC11192711, “Automated radiosynthesis and preclinical evaluation of two new PSMA-617 derivatives radiolabelled via [^18F]AlF^2+ method” (EJNMMI Radiopharmacy and Chemistry, 2024)

Test system: LNCaP tumour-bearing NSG mice
Assay: PET/CT in vivo biodistribution and tumour uptake in subcutaneous LNCaP prostate cancer xenograft model
Details: n = 4; for Bone (SUV mean) / Brain (SUV mean) / Colon (SUV mean) / Gall bladder (SUV mean) / Heart (SUV mean) / Kidney (SUV mean) / Liver (SUV mean) / Lung (SUV mean) / Muscle (SUV mean) / Salivary gland (SUV mean) / Small instestine (SUV mean): LNCaP NSG male mice, i.v., PET/CT; for ratio between tumour and muscle (tumour SUV max/muscle SUV mean) / uptake in the tumour expressed as SUV max: LNCaP tumour, NSG mice
Experimental: The uptake of [^18F]F-PSMA-1007 and [^18F]F-PSMA-617-NODA ([^18F]1) was compared in vivo in a xenograft model of human prostate cancer obtained using LNCaP cells which are PSMA positive, as confirmed by real time PCR-analysis (Additional file 1: S69A). LNCaP tumour-bearing NSG mice were injected i.v. with either [^18F]F-PSMA-1007 or [^18F]F-PSMA-617-NODA (~ 3.8 MBq/mouse, ~ 20 pmol for [^18F]F-PSMA-1007 and ~ 50 pmol [^18F]1). Radiotracer uptake was assessed after 10, 60 and 120 min post injection by whole-body PET/CT acquisitions.
Total body biodistribution of [^18F]F-PSMA-1007, [^18F]F-PSMA-617-NODA and [^18F]F-PSMA-617-RESCA was evaluated in vivo using imaging PET/CT. [^18F]F-PSMA-617-NODA uptake was compared to that of the [^18F]F-PSMA-1007 in a PSMA positive prostate tumour xenograft model (LNCaP). [^18F]F-PSMA-617-NODA and [^18F]F-PSMA-617-RESCA uptake were also evaluated using an orthotopic glioma model (Gli36ΔEGFR).
Animal experiments were carried out in compliance with institutional guidelines for the care and the use of experimental animals, which have been authorized by the Italian Ministry of Health (n° 378/2019-PR and 817/2021-PR). The animals were housed at constant temperature (23 °C) and relative humidity (40%) under a regular light/dark cycle with food and water available ad libitum. Seven to eight weeks old male NSG mice (Charles River Laboratories Italia s.r.l., Italy) were subcutaneously inoculated in the right flank with 5 × 10^6 of PSMA‐positive human prostate cancer cells (LNCaP) suspended in matrigel (1: 1, total volume 200 ul). The growth tumour was monitored periodically with calliper and tumour volume was calculated using the following formula: […]
When the tumour volume was about 230.8 ± 60.3 mm^3 (approximately 15 days after tumour cells inoculation), 4 animals performed an in vivo biodistribution of [^18F]F-PSMA-1007 and [^18F]F-PSMA-617-NODA, on successive but non-consecutive days, using PET/CT.
Mice were injected into a tail vein with 3.8 ± 0.1 MBq of [^18F]F-PSMA-1007, 4.0 ± 0.2 MBq of [^18F]F-PSMA-617-NODA ([^18F]1) and 3.8 ± 0.1 MBq of [^18F]F-PSMA-617-RESCA ([^18F]2), respectively.
Total body PET/CT acquisitions were performed using PET/CT tomographs dedicated to small animals, X-ß-CUBE (Molecubes, Gent, Belgium) after 10, 60 and 120 min from tracer injection. Each acquisition lasted 30 min and mice were maintained anesthetized (4% isoflurane in induction and 2% in maintenance in air) during acquisition.
Image quantification analysis was performed with PMOD 4.105 software (Zurich, Switzerland). Volumes of interest (VOIs) were drawn on peripheral organs (tumour, thoracic muscle, heart, liver, kidney, salivary glands, lung, small intestine, colon, bone, gall bladder) and on the healthy brain using CT images. For the glioma model, PET/CT images were co-registered to MRI images and two different VOIs were defined: (1) a control VOI covering the healthy left striatum (volume 4 mm^3) was drawn on the axial MR images, adjusted on the other imaging planes and then copied on the PET images of each mouse; (2) a second glioma-covering VOI was drawn in the tumour-affected brain hemisphere and centered on mice lesions.
For quantification, Standardized Uptake Value (SUV) was calculated according to the formula:
SUV = organ concentration activity [MBq/g]/(injected activity [MBq]/animal weight [g]).
The data were expressed as standardized-uptake-values (SUVmean and SUVmax) and as tumour-to-muscle (T/M) and tumour-to-blood (T/B) ratio in PCa model and as tumour-to-contralateral (T/Cl) ratio in glioma model.

O=C(O)CC[C@H](NC(=O)N[C@@H](CCCCNC(=O)[C@H](Cc1ccc2ccccc2c1)NC(=O)c1ccc(CNC(=O)[C@H](CCC(=O)O)NC(=O)[C@H](CCC(=O)O)NC(=O)c2ccc([18F])nc2)cc1)C(=O)O)C(=O)O [[^18F]F-PSMA-1007, reference compound]
Bone (SUV mean) (10 min p.i.): 0.36 ± 0.09 | Brain (SUV mean) (10 min p.i.): 0.12 ± 0.02 | Colon (SUV mean) (10 min p.i.): 0.35 ± 0.27 | Gall bladder (SUV mean) (10 min p.i.): 0.99 ± 0.40 | Heart (SUV mean) (10 min p.i.): 0.38 ± 0.09 | Kidney (SUV mean) (10 min p.i.): 9.55 ± 2.63 | Liver (SUV mean) (10 min p.i.): 0.50 ± 0.04 | Lung (SUV mean) (10 min p.i.): 0.46 ± 0.09 | Muscle (SUV mean) (10 min p.i.): 0.23 ± 0.03 | Salivary gland (SUV mean) (10 min p.i.): 1.40 ± 0.25 | Small instestine (SUV mean) (10 min p.i.): 0.60 ± 0.05 | Bone (SUV mean) (60 min p.i.): 0.26 ± 0.09 | Brain (SUV mean) (60 min p.i.): 0.09 ± 0.03 | Colon (SUV mean) (60 min p.i.): 0.28 ± 0.14 | Gall bladder (SUV mean) (60 min p.i.): 1.02 ± 0.43 | Heart (SUV mean) (60 min p.i.): 0.28 ± 0.06 | Kidney (SUV mean) (60 min p.i.): 12.04 ± 2.49 | Liver (SUV mean) (60 min p.i.): 0.33 ± 0.06 | Lung (SUV mean) (60 min p.i.): 0.40 ± 0.16 | Muscle (SUV mean) (60 min p.i.): 0.20 ± 0.04 | Salivary gland (SUV mean) (60 min p.i.): 1.40 ± 0.20 | Small instestine (SUV mean) (60 min p.i.): 0.49 ± 0.12 | Bone (SUV mean) (120 min p.i.): 0.21 ± 0.08 | Brain (SUV mean) (120 min p.i.): 0.10 ± 0.03 | Colon (SUV mean) (120 min p.i.): 0.26 ± 0.08 | Gall bladder (SUV mean) (120 min p.i.): 0.75 ± 0.48 | Heart (SUV mean) (120 min p.i.): 0.24 ± 0.03 | Kidney (SUV mean) (120 min p.i.): 14.49 ± 1.41 | Liver (SUV mean) (120 min p.i.): 0.21 ± 0.02 | Lung (SUV mean) (120 min p.i.): 0.31 ± 0.07 | Muscle (SUV mean) (120 min p.i.): 0.15 ± 0.05 | Salivary gland (SUV mean) (120 min p.i.): 1.58 ± 0.12 | Small instestine (SUV mean) (120 min p.i.): 0.30 ± 0.07 | ratio between tumour and muscle (tumour SUV max/muscle SUV mean) (60 min p.i.): 7.46 ± 1.55 | uptake in the tumour expressed as SUV max (60 min p.i.): 1.48 ± 0.29 | ratio between tumour and muscle (tumour SUV max/muscle SUV mean) (120 min p.i.): 11.99 ± 6.16 | uptake in the tumour expressed as SUV max (120 min p.i.): 1.60 ± 0.44
